Where “and” joins values, the source holds several entries; their conditions need not be identical. Identical values can stand only once.

This is an account of results in article PMC9030254, “Target Hopping from Protein Kinases to PXR: Identification of Small-Molecule Protein Kinase Inhibitors as Selective Modulators of Pregnane X Receptor from TüKIC Library” (Cells, 2022).

One series concerns CYP3A4. Put plainly: PXR target gene mRNA expression in LS174T cells (RT-qPCR). To be noted: 10 µM single treatment, 48 h (109) or 72 h (73, 100).
For series [1], the target named is T1, PXR (Homo sapiens, UniProt O75469).
T1 sequence (O75469 1-434): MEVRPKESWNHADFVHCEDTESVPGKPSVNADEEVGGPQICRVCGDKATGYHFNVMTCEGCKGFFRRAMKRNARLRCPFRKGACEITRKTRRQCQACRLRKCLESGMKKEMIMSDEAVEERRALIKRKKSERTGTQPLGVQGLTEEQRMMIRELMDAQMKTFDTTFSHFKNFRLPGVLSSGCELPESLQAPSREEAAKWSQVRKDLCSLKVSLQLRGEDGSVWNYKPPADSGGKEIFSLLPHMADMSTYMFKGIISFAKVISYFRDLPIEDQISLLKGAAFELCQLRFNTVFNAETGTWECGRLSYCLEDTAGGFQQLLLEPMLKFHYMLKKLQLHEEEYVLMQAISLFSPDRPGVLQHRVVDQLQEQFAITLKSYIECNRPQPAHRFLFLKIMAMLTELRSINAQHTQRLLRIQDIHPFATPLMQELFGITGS
In words: PXR-dependent CYP3A4 reporter gene assay, antagonist mode (cotreatment with rifampicin). The note with it: for IC50: read-out: IC50, inhibition of rifampicin-induced PXR activation. The format is cell-based. On the set-up: expressed in transfected cells; host or cells: H-P cells (HepG2 stably transfected with PXR). An excerpt: (§1) Figure 1 Identification of novel putative PXR ligands from the TüKIC library. (A) Workflow of the in silico screening and structures of the identified candidate ligands. (B) Concentration–response curves of the novel inhibitors for antagonism of PXR activity. (C) Concentration–response curves of the same compounds and 109 for PXR activation. […] Data are expressed as mean ± SD fold induction with respect to the DMSO-treated cells from three independent experiments. IC50 and EC50 values calculated with nonlinear regression using formula with 3 parameters (constraint bottom =1) using GraphPadPrism.
(§2) Supplementary Figure S1. Effects of 56 in silico screened TüKIC compounds (A) alone or (B) in combination […]
(§3) H-P cells were transiently
(§4) Luciferase activities were measured after 24 h treatment. Data is expressed as mean ± SD %. Activation was calculated according to Zhu et al. from three independent experiments with technical triplicates. Fold induction achieved by 10 μM […]
(§5) Green and red dashed lines represent the 100% and 50% activation, respectively.
(§6) (1 picture or pasted object on this page, not shown here)

The target in series [2] is T1, PXR. Put plainly: PXR-dependent CYP3A4 reporter gene assay, agonist mode. The format is cell-based. On the set-up: expressed in transfected cells; host or cells: H-P cells (HepG2 stably transfected with PXR). To be noted: H-P cells; for activation of CYP3A4 reporter on their own, % of rifampicin activity: 10 µM compound alone, 10 µM rifampicin = 100%; for activation of CYP3A4 reporter on their own, % of rifampicin activity / EC50: 24 h; for EC50 / fold induction at 24 h: compound alone; for EC50: read-out: EC50, PXR activation; for fold induction at 24 h: human, vs DMSO, read-out: maximal effect (Emax), fold induction.
Text: as §1, §2, §3, §4, §5, §6

Series [3] deals with T2, PXR interaction with corepressor SMRT (Homo sapiens, UniProt O75469).
T2 construct: VP16-PXR LBD(108–434); expressed in transfected cells; host or cells: HepG2
T2 sequence (O75469 108-434): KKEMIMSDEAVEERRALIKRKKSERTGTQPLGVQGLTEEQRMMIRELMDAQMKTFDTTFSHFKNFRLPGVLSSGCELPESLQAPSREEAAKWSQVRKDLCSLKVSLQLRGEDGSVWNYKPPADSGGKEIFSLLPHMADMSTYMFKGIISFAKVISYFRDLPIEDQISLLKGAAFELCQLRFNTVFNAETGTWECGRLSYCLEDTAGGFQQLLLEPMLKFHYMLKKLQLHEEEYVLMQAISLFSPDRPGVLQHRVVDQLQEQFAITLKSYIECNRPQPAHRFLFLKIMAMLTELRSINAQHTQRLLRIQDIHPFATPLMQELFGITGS
T2 sequence (P19793 1-462 partner): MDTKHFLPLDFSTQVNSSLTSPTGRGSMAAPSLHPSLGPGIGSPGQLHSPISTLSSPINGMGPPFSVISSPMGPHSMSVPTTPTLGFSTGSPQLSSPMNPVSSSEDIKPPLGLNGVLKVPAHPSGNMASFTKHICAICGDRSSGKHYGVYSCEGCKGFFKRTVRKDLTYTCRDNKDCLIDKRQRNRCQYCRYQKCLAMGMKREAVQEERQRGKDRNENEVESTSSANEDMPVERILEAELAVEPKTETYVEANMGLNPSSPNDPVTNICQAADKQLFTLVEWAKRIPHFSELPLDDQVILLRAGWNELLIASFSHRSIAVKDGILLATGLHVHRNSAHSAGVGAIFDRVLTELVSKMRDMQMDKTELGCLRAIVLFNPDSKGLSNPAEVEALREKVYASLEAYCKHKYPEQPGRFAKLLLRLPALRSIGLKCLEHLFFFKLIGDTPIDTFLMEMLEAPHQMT
In words: Mammalian two-hybrid corepressor interaction assay. The class given is cell-based. The note with it: HepG2, 10 µM. Here is the method:
(§7) In mammalian two-hybrid corepressor/coactivator interaction assays, per well 0.24 µg pGL4-G5, 0.01 µg pGL4.75[hRluc/CMV], 0.03 µg expression plasmid encoding VP16-AD/PXR LBD fusion, and 0.03 µg expression plasmids encoding GAL4-DBD/SRC1-RID or GAL4-DBD/SMRT-RID fusions, respectively, were used. For the SMRT corepressor interaction assay, additionally 0.015 µg of RXRα expression plasmid was included.

Series [4] concerns the target T3, PXR interaction with coactivator SRC1 (Homo sapiens, UniProt O75469).
T3 construct: VP16-PXR LBD(108–434); expressed in transfected cells; host or cells: HepG2
T3 sequence (O75469 108-434): T2 sequence (O75469 108-434)
In words: Mammalian two-hybrid coactivator interaction assay. The class given is cell-based. The note with it: for effect on rifampicin-dependent recruitment of SRC1 by PXR: HepG2, 10 µM compound + 10 µM rifampicin; for induction of interaction of PXR with coactivator SRC1: HepG2, 10 µM, alone. How it is done:
as §7

Turning to `O=C(Cc1ccccc1)Nc1ccc(F)c(Nc2ccc3c(c2)CCCCC3=O)c1` [Compound 100], the “expression of CYP3A4 mRNA” value in the series with CYP3A4 is listed as “induced CYP3A4 expression, which was comparable to induction by rifampicin”. The IC50 at PXR [1] stood at 2.8 µM. In addition, at PXR [2], the “activation of CYP3A4 reporter on their own, % of rifampicin activity” value is “about 10%”; the EC50 is 0.15 µM; the fold induction at 24 h is approximately 2. Moreover, the “effect on constitutive interaction of PXR with corepressor SMRT” value (from here on “effect on constitutive interaction”) in series [3] is given as “impaired the constitutive interaction of PXR with the corepressor”. In series [4], the “effect on rifampicin-dependent recruitment of SRC1 by PXR” value is “abrogated the rifampicin-dependent recruitment of SRC1 by PXR” and the “induction of interaction of PXR with coactivator SRC1” value (“induction of interaction of PXR” for short) is recorded as “did not induce any interaction of PXR with coactivator SRC1”.
For `Cc1ccc(NC(=O)Cc2ccccc2)cc1Nc1ccc2c(c1)CCCCC2=O` [Compound 73], in the series on CYP3A4, the “expression of CYP3A4 mRNA” value is reported as “induced CYP3A4 expression, which was comparable to induction by rifampicin”. In addition, the IC50 at PXR [1] is 8.3 µM. Further, on PXR [2], the “activation of CYP3A4 reporter on their own, % of rifampicin activity” value is “about 10%”; the EC50 is 0.41 µM; the fold induction at 24 h was approximately 2. The “effect on constitutive interaction” value in series [3] is recorded as “impaired the constitutive interaction of PXR with the corepressor”. In series [4], the “effect on rifampicin-dependent recruitment of SRC1 by PXR” value is recorded as “abrogated the rifampicin-dependent recruitment of SRC1 by PXR” and the “induction of interaction of PXR” value is given as “did not induce any interaction of PXR with coactivator SRC1”.
With `O=C(Nc1ccc(F)c(Nc2ccc3c(c2)CCCCC3=O)c1)c1cccc(F)c1` [Compound 109], the “expression of CYP3A4 mRNA” value with CYP3A4 was “induced both genes”. Further, the “inhibition of rifampicin-mediated induction of CYP3A4 reporter activity” value on PXR [1] (H-P cells, 10 µM compound + 10 µM rifampicin, 24 h) is given as “does not inhibit PXR”. For the same compound, at PXR [2], the half-maximal effective concentration (EC50) was 44 µM and 29.2 µM; the fold induction at 24 h amounted to 27. In series [3], the “effect on constitutive interaction” value was “impaired the constitutive interaction of PXR with the corepressor”. In series [4], the “induction of interaction of PXR” value is recorded as “interaction with SRC1 was induced”.
